# Reference: patent US6248718A, “Lesion-directed dry dosage forms of antibacterial agents for the treatment of acute mucosal infections of the oral cavity” (priority 1999, dated 2001)
# Values joined by “and” are separate entries in the source; they are usually repeats but may differ in a detail not shown here. Equal entries are not always repeated. “Also recorded” adds a separate entry of the source. Structures can show the parent of a compound that is named as a salt. Where two headings read alike, the source gives them in different places.
# Legend:
# [1] = Topical dry dosage treatment of minor aphthous ulcers, gingivitis and periodontal infections; type: in vivo, human; conditions: 50 mg dry dosage form, four times a day
# Text: The administration of the medicament depends upon the type of infection to be treated and the type and dosage of the antibacterial agent used. The appropriate antibacterial agent, dosage and treatment regimen can readily be determined by someone having ordinary skill in this art. […] Thorough tooth cleaning is advised prior to introduction of the medicament to an infected area.
# [2] = Local concentration of oxytetracycline hydrochloride in saliva after a 50 mg troche; conditions: for peak concentration locally at the site of the ulcer: assuming troche is dissolved in 0.1 ml of saliva
# Text: The final concentrations of oxytetracycline in the control standard nutrient broth were 0.25 mcg/ml, 0.5 mcg/ml, 1.0 mcg/ml, 2.0 mcg/ml, 4.0 mcg/ml, and 8.0 mcg/ml. The final dilutions of saliva sample were 1/50,000, 1/100,000, 1/200,000, 1/400,000, 1/800,000 and 1/1,600,000 for the peak concentration test tubes and 1/4,000. 1/8,000, 1/16,000 and 1/32,000 for the trough concentration test tubes. The Staphylococcus aureus (ATCC 29213) was also used as the standard test microorganism.
# [3] = tested on: human salivary microbial flora; test: Minimal total inhibition concentration of ciprofloxacin for human salivary microbial flora (Example XI); type: cell-based; conditions: 1 h, aerobic blood agar
# Method: (§1) Source of human salivary flora: undiluted saliva freshly collected from the mouth of a healthy adult who had refrained from fluid or food intake for three hours after breakfast prior to saliva collection.
# Antibacterial agent: Cipro (a member of the quinolone group) I.V. 200 mg in 20 ml (1%) for intravenous infusion. […] Division Bayer Corporation. Procedure:
# 1) An aliquot of 1 ml of the Cipro solution, 1%, was added to 1.5 ml to make a total volume of 2.5 ml, equivalent to a 4 mg/ml concentration of the antibacterial agent in saliva.
# 2) An aliquot of 0.2 ml of the 4 mg/ml Cipro salivary solution was pipetted out for serial double dilutions in saliva in test tubes to the final concentrations of 4, 2, 1, 0.5, 0.25 and 0.12 mg of Cipro per ml, respectively.
# 3) All tubes containing saliva with different concentrations of Cipro were incubated in 37 degrees Celsius for one hour.
# 4) At the end of the one-hour incubation, 0.1 ml of the salivary Cipro solution was pipetted from each test tube and inoculated on the surface of a blood agar plate. An aliquot of 0.1 ml saliva sample containing no Cipro was spread on the surface of a blood agar plate as control.
# (§2) 5) After 18 hours of incubation in 37 degrees Celsius aerobically, the growth on the blood agar plates was inspected and compared for the presence or absence of bacterial colonies.
# [4] = tested on: human salivary microbial flora; test: Minimal total inhibition concentration of tetracyclines for human salivary microbial flora (Example X); type: cell-based; conditions: for bacterial growth from treated saliva: 1 h, aerobic blood agar
# Method: as §1
# Antibacterial agent: Doxycycline cyclate (a tetracycline) for injection USP, equivalent to 100 mg Doxycycline (Fugusawa USA, Inc., Deerfield, IL 60015-2548. Procedure:
# 1) An adequate amount of saliva was added to the vial of doxycycline to make a total volume of suspension of 3.1 ml, equivalent to a 32 mg/ml concentration of the antibacterial agent.
# 2) An aliquot of 0.2 ml of the 32 mg/ml doxycycline salivary solution was pipetted out for serial double dilutions in saliva in test tubes to the final concentrations of 32, 16, 8, 4, 2, 1, 0.5, 0.25 and 0.12 mg of doxycycline per ml.
# 3) All tubes containing saliva with different concentrations of doxycycline were incubated in 37 degrees Celsius for one hour.
# 4) At the end of the one-hour incubation, 0.1 ml of the salivary doxycycline solution was pipetted from each test tube and inoculated on the surface of a blood agar plate. An aliquot of 0.1 ml saliva sample containing no antibacterial agent was spread on the surface of a blood agar plate as control.
# as §2
# [5] = cited from earlier work
# [6] = Local concentration of penicillin in saliva after a troche containing 50 mg penicillin G; type: in vivo, human; conditions: assuming troche is dissolved in 0.1 ml of saliva
# Method: The local concentration of penicillin in the saliva was determined as follows. […] This loculated pocket of saliva was not swallowed and was not to be diluted with excess saliva from other parts of the mouth for one hour. Two samples were taken for assay to determine the peak and trough local concentrations of penicillin during the one-hour duration of medicinal treatment. At the time when the troche was completely dissolved and one hour later, aliquots of 10 microliters were pipetted from this pocket of saliva solution at the site of medication, representing the peak level and the trough level of antibiotic concentration, and transferred into 10 ml of distilled water to make a 1:1.000 dilution and into 1 ml of distilled water to make a 1:100 dilution, respectively. The diluted saliva antibiotic solutions were passed through a sterile bacteria-filter to remove any bacterial or fungal contaminants of the oral flora.
# For determination of the peak concentration, 1 ml of the bacteria-free filtrate was further diluted with 9 ml of nutrient broth to achieve a 1:10,000 dilution of the saliva. Then a serial two-fold dilution was made of this 1:10,000 diluted saliva sample with an equal volume of nutrient broth in a roll of test tubes to obtain a series of 1 ml aliquots of nutrient broth in which the saliva was diluted to 20,000, 40,000, 80,000, 160,000, 320,000, 640,000, 1,280,000 and 2,560,000 folds respectively. […] Thus the final dilutions of the saliva sample were in the range of 40,000 to 5,120,000 folds.
# For determining the trough concentration, the entire 1 ml of the 1:100 diluted saliva filtrate was used to make the serial dilutions so that the final dilutions of saliva sample were in the range of 4,000 to 256,000 folds in the final test culture.
# As control standards, a series of test tubes containing 1 ml of nutrient broth with varying concentrations of penicillin G potassium salt ranging from 0.1 units to 10 units/ml were similarly mixed with an equal volume of nutrient broth freshly inoculated with the standard tubes of Staphylococcus aureus. Both the test and control standard tubes were incubated at 37° C. for 18 hours. Among the test tubes showing no gross evidence of bacterial growth, the one containing the highest dilution of saliva and the one containing the least amount of penicillin G were considered as having the identical concentration of penicillin, i.e. the MIC of the staphylococcus aureus.
# [7] = cited from earlier work; remark: listed apart in the source
smiles,measurement,setting,value
CN(C)[C@@H]1C(=O)C(C(N)=O)=C(O)[C@@]2(O)C(=O)C3=C(O)c4c(O)cccc4[C@@](C)(O)[C@H]3C[C@@H]12 [tetracycline HCL],patients with complete relief of pains within about 48 hours,[1],over 90%
same,time to complete relief of pains,[1],≤ 48 h
CN(C)[C@@H]1C(=O)C(C(N)=O)=C(O)[C@@]2(O)C(=O)C3=C(O)c4c(O)cccc4[C@@](C)(O)[C@H]3[C@H](O)[C@@H]12 [oxytetracycline hydrochloride],trough concentration in saliva,"[2]; 50 mg oxytetracycline hydrochloride troche, one hour, 60 min, hydrochloride",8 mg/mL
same,initial peak concentration in saliva,"[2]; 50 mg oxytetracycline hydrochloride troche, two subjects, hydrochloride",800 mg/mL and 400 to 800 mg/mL
same,peak concentration locally at the site of the ulcer,[2],400 to 800 mg/mL
O=C(O)c1cn(C2CC2)c2cc(N3CCNCC3)c(F)cc2c1=O [ciprofloxacin],bacterial growth from treated saliva,[3]; 0.5 mg/ml,A few surviving or uninhibited bacteria grew into colonies
same,bacterial growth from treated saliva,"[3]; 0.5, 0.25 and 0.12 mg/ml",Varying numbers of bacterial colonies were observed
same,bacterial growth from treated saliva,"[3]; 1, 2 and 4 mg/ml",either destroyed or totally inhibited
same,bacterial growth from treated saliva,"[3]; 1, 2 and 4 mg/ml, listed as Cipro",No bacterial colonies were observed
C[C@H]1c2cccc(O)c2C(O)=C2C(=O)[C@]3(O)C(O)=C(C(N)=O)C(=O)[C@@H](N(C)C)[C@@H]3[C@@H](O)[C@@H]21 [doxycycline hyclate],bacterial growth from treated saliva,[4]; 0.5 mg/ml,A few surviving or uninhibited bacteria grew into colonies
same,bacterial growth from treated saliva,"[4]; 0.5, 0.25 and 0.12 mg/ml",Varying numbers of bacterial colonies were observed
same,bacterial growth from treated saliva,"[4]; 1, 2, 4, 8, 16, 32 mg/ml",No bacterial colonies were observed; also recorded: either destroyed or totally inhibited
same,MIC,"[4]; read-out: minimal total inhibition concentration, human salivary microbial flora",~1000 µg/mL
same,patients with complete relief of pains within about 48 hours,[1],over 90%
same,time to complete relief of pains,[1],≤ 48 h
same,peak serum level,[5]; intravenous injection of 100 mg,2.5 µg/mL
same,peak serum level,[5]; intravenous injection of 200 mg,2.6 µg/mL
same,peak serum level,"[5]; oral 200 mg, fasting adults",2.6 to 3 µg/mL
same,peak serum concentration,"[5]; oral ingestion of 100, fasting adults",1.5 to 2.1 µg/mL
CCCCCCCCCCCCCCCCCC(=O)O [magnesium stearate],initial concentration at the ulcer,[6],10 mg/mL
same,peak concentration locally at the site of the ulcer,[2],10 mg/mL
O=C1CCC(N2C(=O)c3ccccc3C2=O)C(=O)N1 (centres unmarked) [Thalidomide],effectiveness of treatment,[7]; earlier treatments of oral infections / aphthous ulcers,effective in some HIV-infected patients
same,adverse effect,[7]; literature,teratogenic
